Source: patent US20260165936A1, “BIO-BASED SURFACTANT COMPOSITION FOR REDUCTION OF MULTISPECIES BIOFILM FORMATION IN ORAL CAVITY” (SKYLAB AG, priority 2023, published 2026)

Key:
dental plaque = details: second-generation anti-plaque agent; cited from earlier work
[1] = test system: dental plaque (biofilm) grown from fresh human saliva; test: Inhibition of biofilm formation on rough glass rods (biofilm dry weight); type: cell-based; details: for Average biofilm weight: biofilm grown 3 days on rough glass rods in human saliva, dry weight; for Biofilm inhibitory effect of the individual component alone compared to the control (in words): individual component without its partner, FIG. 2
Description: The aqueous solutions of sodium lauroyl sarcosinate, biosurfactant rhamnolipid and the mixture thereof at various concentrations were tested for inhibition of biofilm formation on the surface of rough glass rods. The test sample of the raw material contained sodium lauroyl sarcosinate at the level of 35%. The test sample of the raw material contained rhamnolipid at the level of 40%. Sterile water was used as a negative control, and the mouthwash Corsodyl, containing 0.2% chlorhexidine was used as a positive control. Dry biofilm mass was weighted to determine the amount of formed dental plaque. The dental plaque was grown for 3 days by immersion of rough glass rods into the fresh human saliva containing 0.1% saccharose. […] On Day 1 one treatment of the glass rods with the test component solutions, and on Days 2 and 3 two treatments of the glass rods with the test component solutions were made. At the end of Day 3 the biofilm was collected from the glass rods, and the plaque amount by dry weight (g) was determined. Lesser weight indicated higher efficacy against the dental plaque. Sterilized rods were fixed in the holders in the microbiological cabinet. Since that moment the rods and the holders were used as the integral units. On Day 1 the sterile glass rods were pre-treated for 2 minutes with the test component solutions taken in the amount of 5 mL. Then the glass rods were removed, washed in 5 mL of the sterile distilled water and immersed into 5 mL of saliva containing 0.1% saccharose. The tubes were placed into the rack and then into the incubator (t=37° C.) and on shaker (250 rpm) for about 18 hours. On Days 2 and 3 in the morning the rods were treated with the test component solutions, then placed into nutritive broth and returned into the incubator and on shaker. After 6 h incubation in the broth the rods were treated with the test component solution once again and transferred into the saliva with 0.1% glucose, and then returned into the incubator for 18 hours. On Day 4 the tubes with the rods were removed from the incubator and used for determination of the biofilm dry weight. For this purpose, the rods were dried and then weighted on analytical balance with the accuracy of 4 decimal places. The biofilm was removed after the rehydration, and the rods were weighted once again. The biofilm dry weight was determined from the equation: [formula]

Molecule	Removal of dental plaque (dental plaque)	Average biofilm weight ([1]; aqueous solution 0.01%) [g]	Biofilm inhibitory effect of the individual component alone compared to the control (in words) [1]	Dose dependence of dental plaque weight (in words) ([1]; 0.2 and 2% aqueous solutions, 10-fold increase in concentration)	Average biofilm weight ([1]; aqueous solution 0.2%) [g]	Average biofilm weight ([1]; aqueous solution 2%) [g]
[H]/N=C(\N/C(=N/[H])NCCCCCCNC(=N)NC(=N)Nc1ccc(Cl)cc1)Nc1ccc(Cl)cc1 [chlorohexidine]	70-90%	–	–	–	–	–
rhamnolipid [Biosurfactant rhamnolipid]	–	0.0026	do not provide for any biofilm inhibitory effect compared to the control	–	–	–
sodium lauroyl sarcosinate	–	–	do not provide for any biofilm inhibitory effect compared to the control	absence of obvious dose-dependent effect	0.0022	0.0020
